Measured values reported in patent US20260042762A1 (Kymera Therapeutics, Inc., priority 2018, published 2026).

Target: T1, MerTK (Homo sapiens, UniProt Q12866)
T1 construct: endogenous in cells; host or cells: Jurkat cells
T1 sequence (Q12866 21-999): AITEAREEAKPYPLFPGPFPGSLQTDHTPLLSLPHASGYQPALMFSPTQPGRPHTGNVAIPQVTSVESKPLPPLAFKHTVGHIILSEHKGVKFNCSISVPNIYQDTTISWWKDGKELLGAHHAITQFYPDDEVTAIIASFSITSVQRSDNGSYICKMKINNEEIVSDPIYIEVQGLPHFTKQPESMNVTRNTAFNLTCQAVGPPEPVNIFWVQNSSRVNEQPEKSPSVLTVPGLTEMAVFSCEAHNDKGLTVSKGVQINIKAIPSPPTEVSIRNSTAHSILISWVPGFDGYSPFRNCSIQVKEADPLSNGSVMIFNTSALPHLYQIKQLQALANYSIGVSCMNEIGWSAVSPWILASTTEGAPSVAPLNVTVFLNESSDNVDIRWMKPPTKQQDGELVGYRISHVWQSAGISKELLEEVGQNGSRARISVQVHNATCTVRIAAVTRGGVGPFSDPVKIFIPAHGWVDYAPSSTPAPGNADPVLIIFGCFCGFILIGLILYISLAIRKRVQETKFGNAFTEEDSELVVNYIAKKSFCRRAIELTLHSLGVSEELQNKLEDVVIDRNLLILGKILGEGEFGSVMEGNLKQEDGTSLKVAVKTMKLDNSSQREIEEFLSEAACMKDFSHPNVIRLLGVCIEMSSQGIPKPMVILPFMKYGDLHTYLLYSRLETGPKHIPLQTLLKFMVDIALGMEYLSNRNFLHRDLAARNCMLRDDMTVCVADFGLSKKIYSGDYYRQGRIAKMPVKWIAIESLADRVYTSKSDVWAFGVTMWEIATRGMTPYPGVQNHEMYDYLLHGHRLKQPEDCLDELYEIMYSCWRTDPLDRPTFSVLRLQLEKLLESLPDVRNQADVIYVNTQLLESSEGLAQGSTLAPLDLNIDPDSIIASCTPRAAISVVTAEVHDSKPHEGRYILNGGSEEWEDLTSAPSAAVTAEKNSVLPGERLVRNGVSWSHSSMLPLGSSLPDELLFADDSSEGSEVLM
Test: MerTk degradation in Jurkat cells (Western blot)
Type: cell-based
Conditions: Jurkat, 4 h, 0.001-1 μM, 4 hour-incubation at 37° C., read-out: Jurkat Max % MerTK Degradation
Summary of the method: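 Jurkat cells treated 4 h at 37 °C with compound at 0.001-1 μM final. RIPA lysates quantified by BCA, then MerTK probed by Western blot against actin loading control with IR-dye secondaries and Odyssey imaging.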

Row | Dmax [%] | Compound
1 | > 50 | Cn1c(=O)n([C@H]2CCC(=O)NC2=O)c2ccc(CCCN3CC(N4CCN(Cc5ccc(-c6cn([C@H]7CC[C@H](O)CC7)c7nc(NCCC(F)(F)F)ncc67)cc5)CC4)C3)cc21 [I-116, 3-[3-methyl-2-oxo-5-[3-(3-[4-[(4-[7-[trans-4-hydroxycyclohexyl]-2-[(3,3,3-trifluoropropyl)amino]-7H-pyrrolo[2,3-d]pyrimidin-5-yl]phenyl)methyl]piperazin-1-yl]azetidin-1-y1)propyl]-2,3-dihydro-1H-1,3-benzodiazol-1-yl]piperidine-2,6-dione]
2 | > 50 | Cn1c(=O)n([C@H]2CCC(=O)NC2=O)c2ccc(CCCN3CCC(N4CCN(Cc5ccc(-c6cn([C@H]7CC[C@H](O)CC7)c7nc(NCCC(F)(F)F)ncc67)cc5)CC4)CC3)cc21 [I-117, 3-[3-methyl-2-oxo-5-[3-(4-[4-[(4-[7-[trans-4-hydroxycyclohexy1]-2-[(3,3,3-trifluoropropyl)amino]-7H-pyrrolo[2,3-d]pyrimidin-5-yl]phenyl)methyl]piperazin-1-yl]piperidin-1-y1)propyl]-2,3-dihydro-1H-1,3-benzodiazol-1-yl]piperidine-2,6-dione]
3 | 20 to 50 | Cn1c(=O)n(C2CCC(=O)NC2=O)c2ccc(CCCN3CCCC(N4CCN(Cc5ccc(-c6cn([C@H]7CC[C@H](O)CC7)c7nc(NCCC(F)(F)F)ncc67)cc5)CC4)C3)cc21 (stereo partly drawn) [I-118, 3-[3-methyl-2-oxo-5-[3-(3-[4-[(4-[7-[trans-4-hydroxycyclohexy1]-2-[(3,3,3-trifluoropropyl)amino]-7H-pyrrolo[2,3-d]pyrimidin-5-yl]phenyl)methyl]piperazin-1-y1]piperidin-1-y1)propyl]-2,3-dihydro-1H-1,3-benzodiazol-1-yl]piperidine-2,6-dione; formic acid]
4 | > 50 | Cn1c(=O)n([C@H]2CCC(=O)NC2=O)c2ccc(CCCCN3CC(N4CCN(Cc5ccc(-c6cn([C@H]7CC[C@H](O)CC7)c7nc(NCCC(F)(F)F)ncc67)cc5)CC4)C3)cc21 [I-119, 3-[3-methyl-2-oxo-5-[4-(3-[4-[(4-[7-[trans-4-hydroxycyclohexyl]-2-[(3,3,3-trifluoropropyl)amino]-7H-pyrrolo[2,3-d]pyrimidin-5-yl]phenyl)methyl]piperazin-1-yl]azetidin-1-yl)butyl]-2,3-dihydro-1H-1,3-benzodiazol-1-yl]piperidine-2,6-dione; bis(formic acid)]
5 | > 50 | Cn1c(=O)n([C@H]2CCC(=O)NC2=O)c2ccc(CCCCN3CCC(N4CCN(Cc5ccc(-c6cn([C@H]7CC[C@H](O)CC7)c7nc(NCCC(F)(F)F)ncc67)cc5)CC4)CC3)cc21 [I-120, 3-[3-methyl-2-oxo-5-[4-(4-[4-[(4-[7-[trans-4-hydroxycyclohexyl]-2-[(3,3,3-trifluoropropyl)amino]-7H-pyrrolo[2,3-d]pyrimidin-5-yl]phenyl)methyl]piperazin-1-yl]piperidin-1-yl)butyl]-2,3-dihydro-1H-1,3-benzodiazol-1-yl]piperidine-2,6-dione]
6 | > 50 | Cn1c(=O)n(C2CCC(=O)NC2=O)c2ccc(CCCCN3CCCC(N4CCN(Cc5ccc(-c6cn([C@H]7CC[C@H](O)CC7)c7nc(NCCC(F)(F)F)ncc67)cc5)CC4)C3)cc21 (stereo partly drawn) [I-121, 3-[3-methyl-2-oxo-5-[4-(3-[4-[(4-[7-[trans-4-hydroxycyclohexyl]-2-[(3,3,3-trifluoropropyl)amino]-7H-pyrrolo[2,3-d]pyrimidin-5-yl]phenyl)methyl]piperazin-1-yl]piperidin-1-yl)butyl]-2,3-dihydro-1H-1,3-benzodiazol-1-yl]piperidine-2,6-dione]
7 | > 50 | Cn1c(=O)n(C2CCC(=O)NC2=O)c2ccc(CCCN3CCC(N4CCN(Cc5ccc(-c6cn([C@H]7CC[C@H](O)CC7)c7nc(NCCC(F)(F)F)ncc67)cc5)CC4)C3)cc21 (stereo partly drawn) [I-122, 3-[3-methyl-2-oxo-5-[3-(3-[4-[(4-[7-[trans-4-hydroxycyclohexy1]-2-[(3,3,3-trifluoropropyl)amino]-7H-pyrrolo[2,3-d]pyrimidin-5-yl]phenyl)methyl]piperazin-1-y1]pyrrolidin-1-y1)propyl]-2,3-dihydro-1H-1,3-benzodiazol-1-yl]piperidine-2,6-dione; formic acid]
8 | > 50 | Cn1c(=O)n(C2CCC(=O)NC2=O)c2ccc(CCCCN3CCC(N4CCN(Cc5ccc(-c6cn([C@H]7CC[C@H](O)CC7)c7nc(NCCC(F)(F)F)ncc67)cc5)CC4)C3)cc21 (stereo partly drawn) [I-123, 3-[3-methyl-2-oxo-5-[4-(3-[4-[(4-[7-[trans-4-hydroxycyclohexyl]-2-[(3,3,3-trifluoropropyl)amino]-7H-pyrrolo[2,3-d]pyrimidin-5-yl]phenyl)methyl]piperazin-1-yl]pyrrolidin-1-yl)butyl]-2,3-dihydro-1H-1,3-benzodiazol-1-yl]piperidine-2,6-dione; formic acid]

More lines, now with the values behind:

Row | Compound | Dmax [%]
9 | Cn1c(=O)n([C@H]2CCC(=O)NC2=O)c2ccc(CN3CC(OCCN4CCN(Cc5ccc(-c6cn([C@H]7CC[C@H](O)CC7)c7nc(NCCC(F)(F)F)ncc67)cc5)CC4)C3)cc21 [I-109, 3-(3-methyl-2-oxo-5-[[3-(2-[4-[(4-[7-[trans-4-hydroxycyclohexyl]-2-[(3,3,3-trifluoropropyl)amino]-7H-pyrrolo[2,3-d]pyrimidin-5-y1]phenyl)methyl]piperazin-1-yl]ethoxy)azetidin-1-yl]methyl]-2,3-dihydro-1H-1,3-benzodiazol-1-y1)piperidine-2,6-dione] | < 20
10 | C[C@@H](CC(F)(F)F)Nc1ncc2c(-c3ccc(CN4CCN(CCCOCCCc5ccc6c(c5)n(C)c(=O)n6C5CCC(=O)NC5=O)CC4)cc3)cn([C@H]3CC[C@H](O)CC3)c2n1 (stereo partly drawn) [I-110, 3-[3-methyl-2-oxo-5-[3-(3-[4-[(4-[7-[(1r,4r)-4-hydroxycyclohexyl]-2-[[(2S)-4,4,4-trifluorobutan-2-yl]amino]-7H-pyrrolo[2,3-d]pyrimidin-5-yl]phenyl)methyl]piperazin-1-yl]propoxy)propyl]-2,3-dihydro-1H-1,3-benzodiazol-1-y1]piperidine-2,6-dione] | > 50
11 | C[C@H](CC(F)(F)F)Nc1ncc2c(-c3ccc(CN4CCN(CCCOCCCc5ccc6c(c5)n(C)c(=O)n6C5CCC(=O)NC5=O)CC4)cc3)cn([C@H]3CC[C@H](O)CC3)c2n1 (stereo partly drawn) [I-111] | > 50
12 | Cn1c(=O)n([C@H]2CCC(=O)NC2=O)c2ccc(CCCN3CC(CCN4CCN(Cc5ccc(-c6cn([C@H]7CC[C@H](O)CC7)c7nc(NCCC(F)(F)F)ncc67)cc5)CC4)C3)cc21 [I-112, 3-(3-methyl-2-oxo-5-[3-[3-(2-[4-[(4-[7-[trans-4-hydroxycyclohexy1]-2-[(3,3,3-trifluoropropyl)amino]-7H-pyrrolo[2,3-d]pyrimidin-5-yl]phenyl)methyl]piperazin-1-yl]ethyl)azetidin-1-yl]propyl]-2,3-dihydro-1H-1,3-benzodiazol-1-y1)piperidine-2,6-dione] | < 20
13 | Cn1c(=O)n([C@H]2CCC(=O)NC2=O)c2ccc(Cn3cc(CN4CCN(Cc5ccc(-c6cn([C@H]7CC[C@H](O)CC7)c7nc(NCCC(F)(F)F)ncc67)cc5)CC4)nn3)cc21 [I-113, 3-(3-Methyl-2-oxo-5-[[4-([4-[(4-[7-[trans-4-hydroxycyclohexyl]-2-[(3,3,3-trifluoropropyl)amino]-7H-pyrrolo[2,3-d]pyrimidin-5-yl]phenyl)methyl]piperazin-1-yl]methyl)-1H-1,2,3-triazol-1-yl]methyl]-2,3-dihydro-1H-1,3-benzodiazol-1-yl)piperidine-2,6-dione] | > 50
14 | Cn1c(=O)n([C@H]2CCC(=O)NC2=O)c2ccc(CCn3cc(CN4CCN(Cc5ccc(-c6cn([C@H]7CC[C@H](O)CC7)c7nc(NCCC(F)(F)F)ncc67)cc5)CC4)nn3)cc21 [I-114, 3-(3-methyl-2-oxo-5-[12-[4-([4-1(4-[17-[trans-4-hydroxycyclohexyl]-2-[(3,3,3-trifluoropropyl)aminol-7H-pyrrolo[2,3-d]pyrimidin-5-yl]phenyl)methyl]piperazin-1-yl]methyl)-1H-1,2,3-triazol-1-yl]ethyl]-2,3-dihydro-1H-1,3-benzodiazol-1-yl)piperidine-2,6-dione] | > 50
15 | Cn1c(=O)n([C@H]2CCC(=O)NC2=O)c2ccc(CCCOCCCN3CCN(Cc4ccc(-c5cn([C@H]6CC[C@H](O)CC6)c6nc(NCCC(F)F)ncc56)cc4)CC3)cc21 [I-115, 3-[5-[3-(3-[4-[(4-[2-[(3,3-difluoropropyl)amino]-7-[(1r,4r)-4-hydroxycyclohexy1]-7H-pyrrolo[2,3-d]pyrimidin-5-yl]phenyl)methyl]piperazin-1-yl]propoxy)propyl]-3-methyl-2-oxo-2,3-dihydro-1H-1,3-benzodiazol-1-yl]piperidine-2,6-dione; formic acid] | > 50
